Among the data in the NIST ThermoML archive (doi:10.1021/je049801y) are Normal melting temperature values, retold here.

± gives the expanded uncertainty stated by the source.

For this data set the following is noted: Crystal.

Consider `O=C(O)c1ccc(C(=O)O)cc1` [1,4-benzenedicarboxylic acid], for which the Normal melting temperature came to 430.0 ± 1 °C.
With `O=C(O)c1ccccc1` [benzoic acid], the Normal melting temperature turned out to be 122.4 ± 1 °C.
For `Cc1ccc(C(=O)O)cc1` [4-methylbenzoic acid], the Normal melting temperature stood at 182.0 ± 1 °C.
As to `O=C(O)c1cccc(C(=O)O)c1` [1,3-benzenedicarboxylic acid], the Normal melting temperature came to 348.1 ± 1 °C.
